{
  "source": "patent US20250051324A1",
  "about": "“PARP INHIBITOR, PHARMACEUTICAL COMPOSITION COMPRISING SAME, AND USE THEREOF” (KEYTHERA (SUZHOU) BIO-PHARMACEUTICALS CO., LIMITED, priority 2021, published 2025)",
  "key": {"[1]": {"biological_target": "PARP1 (Homo sapiens (Human), UniProt P09874)", "sequence (P09874 whole entry)": "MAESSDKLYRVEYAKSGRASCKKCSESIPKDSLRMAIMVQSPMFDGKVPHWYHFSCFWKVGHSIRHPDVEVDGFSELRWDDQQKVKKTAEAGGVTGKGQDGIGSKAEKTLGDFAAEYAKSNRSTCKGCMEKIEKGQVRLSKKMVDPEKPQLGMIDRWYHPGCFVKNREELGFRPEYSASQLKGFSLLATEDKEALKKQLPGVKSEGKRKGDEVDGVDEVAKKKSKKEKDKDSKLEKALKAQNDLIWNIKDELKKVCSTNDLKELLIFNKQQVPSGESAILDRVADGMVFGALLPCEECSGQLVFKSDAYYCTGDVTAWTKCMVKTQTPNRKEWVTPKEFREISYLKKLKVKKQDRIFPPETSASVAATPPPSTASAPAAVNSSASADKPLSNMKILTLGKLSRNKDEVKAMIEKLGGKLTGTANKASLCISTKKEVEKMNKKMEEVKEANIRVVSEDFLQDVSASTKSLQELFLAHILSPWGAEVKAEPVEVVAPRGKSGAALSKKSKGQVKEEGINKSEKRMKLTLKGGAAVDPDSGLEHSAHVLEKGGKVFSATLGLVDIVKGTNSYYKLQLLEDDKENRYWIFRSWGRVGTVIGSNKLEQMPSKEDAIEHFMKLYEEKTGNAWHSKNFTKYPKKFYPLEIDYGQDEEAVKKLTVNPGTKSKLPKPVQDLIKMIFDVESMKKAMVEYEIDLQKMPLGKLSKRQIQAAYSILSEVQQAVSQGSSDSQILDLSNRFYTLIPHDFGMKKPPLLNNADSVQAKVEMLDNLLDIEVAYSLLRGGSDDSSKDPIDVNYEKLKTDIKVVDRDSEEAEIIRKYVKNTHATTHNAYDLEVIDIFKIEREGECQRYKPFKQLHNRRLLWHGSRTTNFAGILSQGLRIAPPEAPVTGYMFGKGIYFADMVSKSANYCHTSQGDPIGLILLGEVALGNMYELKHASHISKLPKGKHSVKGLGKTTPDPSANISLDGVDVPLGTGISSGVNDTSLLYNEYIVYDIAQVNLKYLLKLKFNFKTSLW", "experiment": "PARP enzyme activity assay (PARP1 chemiluminescent assay kit)", "assay_type": "biochemical", "settings": "enzyme inhibitory activity, read-out: PARP-1 IC50", "outline": "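Chemiluminescent kit measuring PARP1 poly(ADP-ribosylation) of plate-coated histones in presence of activated DNA; compounds in 1:3 serial dilution, top 10 μM before 10-fold buffer dilution. Enzyme (2.5 ng/μL added) reacted 60 min at room temperature, detected by streptavidin-HRP luminescence; IC50 from log-concentration vs % inhibition.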"}, "[2]": {"system": "human breast cancer (MDA-MB-436) cell line", "experiment": "Mouse CDX tumor model (MDA-MB-436 subcutaneous xenograft)", "assay_type": "in vivo", "settings": "for Tumor Growth Inhibition Rate (TGI): 28 days", "description": "Test Objective: The efficacy of the compounds was evaluated in a subcutaneous xenograft model of human breast cancer (MDA-MB-436) cell line in mice.\nTest Compounds: Olaparib, Compound 1\nExperimental Animals: Female NOD SCID mice, 4-5 weeks old, purchased from Nanjing Jicui.\nHousing and Management: The experimental animals were housed in SPF-grade, temperature- and humidity-controlled clean rooms, using individually ventilated cages (IVC) with no more than 5 mice per cage. Temperature/humidity was controlled within the range of (23±3)° C./40-70%. Feed and water: SPF-grade mouse feed, sterilized by cobalt-60 irradiation. Drinking water was ultrafiltered and autoclaved. Animals had free access to sterile food and water. Animal identification: ear tags.\nTumor Cell Line and Tumor Model: MDA-MB-436 cells (Nanjing Cobioer Biotechnology Co., Ltd., Cat. No: CBP60385) were cultured in vitro in DMEM complete medium containing 10% fetal bovine serum, 1% penicillin-streptomycin, 1% insulin, and 16 μg/mL glutathione (37° C., 5% CO2). When the cells met the requirements for the in vivo efficacy experiment, they were collected, counted, and prepared into a PBS cell suspension. Each mouse (5-6 weeks old NOD SCID) was inoculated subcutaneously on the right flank with 0.9×10^7 cells. Tumor volume was measured and calculated three times a week after inoculation. When the tumor volume reached approximately 200-300 mm^3, the mice were grouped for administration.\nExperimental Groups: The experiment was divided into the following groups: vehicle control group; Olaparib 100 mg/kg group; Compound 1 0.1 mg/kg group; Compound 1 0.3 mg/kg group; and Compound 1 1.0 mg/kg group. All groups were administered orally by gavage once daily. […] After 28 days of administration, the tumor volume was used to calculate the tumor growth inhibition rate (TGI %), and the tumor inhibition effect was statistically analyzed using software such as Excel, etc."}, "[3]": {"experiment": "Liver microsome metabolism assay", "settings": "CD1, mouse, liver microsomes", "quoted_text": "Experimental Materials: Mixed CD1 mouse liver microsomal enzyme protein was purchased from Xenotech (#M1000), and NADPH was purchased from Abmole (#M9076).\n1. To the liver microsomal enzyme reaction system, 210 μL of phosphate buffer was added, followed by 12.5 μL of liver microsomal enzyme at a concentration of 20 mg/mL. Then, 25 μL of NADPH at a concentration of 10 mM was added to the system, mixed well, and incubated in a 37° C. water bath with shaking for 10 minutes.\n2. The test compound, stored at a concentration of 10 mM, was diluted to 100 μM with DMSO. Then, 2.5 μL of the diluted test compound was added to the reaction system, mixed well, and incubated in a 37° C. water bath with shaking.\n3. At 0.5, 5, 10, 20, 30, and 60 minutes, 25 μL of the enzyme reaction mixture was taken and added to 125 μL of cold acetonitrile containing dexamethasone as an internal standard. The mixture was centrifuged at 4000 g for 20 minutes, and the supernatant was mixed with an equal volume of distilled water. The mixed sample was then subjected to quantitative analysis by liquid chromatography-mass spectrometry.\n4. Calculation of in vitro drug metabolism half-life and drug clearance rate:\nt1/2=−0.693/k. (k: the slope of the linear regression of the natural logarithm of the percentage of drug remaining versus incubation time)."}, "[4]": {"experiment": "Evaluation of pharmacokinetics in mice", "settings": "male, ICR (CD1), mouse, plasma, po, 10 mg/kg"}},
  "data": [
    {"smiles": "CNC(=O)c1ccc(N2CCN(Cc3cnc4c(C)c(C(F)(F)F)c(=O)[nH]c4c3)CC2)cn1", "note": "[Compound 1, N-methyl-5-(4-((8-methyl-6-oxo-7-(trifluoromethyl)-5,6-dihydro-1,5-naphthyridin-3-yl)methyl)piperazin-1-yl)picolinamide]", "values": [
      {"measurement": "IC50", "setting": "[1]", "result": 2.78, "unit": "nM"},
      {"measurement": "Tumor Growth Inhibition Rate (TGI)", "setting": "[2]; 0.1 mg/kg oral once daily", "result": 89, "unit": "%"},
      {"measurement": "Tumor Growth Inhibition Rate (TGI)", "setting": "[2]; 0.3 mg/kg oral once daily", "result": 113, "unit": "%"},
      {"measurement": "Tumor Growth Inhibition Rate (TGI)", "setting": "[2]; 1.0 mg/kg oral once daily", "result": 115, "unit": "%"},
      {"measurement": "Body weight vs vehicle control group", "setting": "[2]; MDA-MB-436 model, all treatment groups", "result": "no significant difference"},
      {"measurement": "microsomal CLint at 1 µM", "setting": "[3]", "result": 0.32, "unit": "µL/min/mg"},
      {"measurement": "AUC(0-inf)", "setting": "[4]", "result": 972, "unit": "µg·h/mL"},
      {"measurement": "Cmax", "setting": "[4]", "result": 39600, "unit": "ng/mL"},
      {"measurement": "half-life", "setting": "[4]", "result": 17.9, "unit": "h"}
    ]}
  ]
}
